Measurements: patent publication US8501722B2, “Methods and compositions for treating bacterial infection” (priority 2009, dated 2013)
Values joined by “and” are separate entries in the source; they are usually repeats but may differ in a detail not shown here. Equal entries are not always repeated. Where two headings read alike, the source gives them in different places.

Assays:
SK(+)GAS = test: GAS growth by OD600 nm of culture; type: cell-based, Group A Streptococcus; details: Streptococcus; for activity at 0.1 µg/mL: read-out: GAS Growth (% control), compound conc. 0.1 μg/ml; for activity at 0.3 µg/mL: read-out: GAS Growth (% control), compound conc. 0.3 μg/ml; for activity at 5 µg/mL: read-out: GAS Growth (% control), compound conc. 5 μg/ml; for activity at 10 µg/mL: read-out: GAS Growth (% control), compound conc. 10 μg/ml; for activity at 20 µg/mL: read-out: GAS Growth (% control), compound conc. 20 μg/ml
SK(+)GAS (UMAA2616) = test: Survival of human plasminogen transgenic (Tg+) mice infected with GAS; type: in vivo; details: UMAA2616 infection; 575096 5 μg per day, 1S-22207 30 μg per day, intraperitoneally daily for 5 days, starting one day after infection
Experimental: To examine the in vivo efficacy of compounds CCGC, CCGE, and CCGF, Tg+ mice were first infected with 6*10^5 CFU SK(+)GAS, then injected with 5 μg of test compound per mouse intraperitoneally daily for 5 days, starting one day after infection. […] In some embodiments, small compound are delivered continuously through an ALZET® Osmotic Pump (DURECT Corporation, Cupertino, Calif.).
Tg+ mice are then used to test the efficacy of compounds in attenuating the virulence of GAS infection. 20 Tg+ mice are infected with 10^5 CFU of SK(+)GAS then injected with the estimated experimental doses of the compounds two hours later. Survival is monitored for 9 days, while a control group of Tg+ mice will be infected with SK(+)GAS injected with DMSO. The comparison of mortalities between the two groups is analyzed as described above in the toxicity test. Treating mice with compound post-infection helps avoid potential side-effects of toxic or growth inhibition of compound on SK(+)GAS at the time of infection. As a result, the effect of compound on mice survival is a more authentic reflection of the efficacy of compound on inhibiting GAS virulence. Possible scenarios include:
This example describes the in vivo efficacy of compound 575096. Human plasminogen transgenic mice (Tg+) were first infected with 10^5″^6 CFUUMAA2616, then injected with 5-30 lag of test compound per mouse intraperitoneally daily for 5 days, starting one day after infection.

Experimental for streptokinase (SK): SK− Ecoli and SKCtr1's dose response relationship with these compounds were then examined.
The effects of 10 hit compounds out of the 23 identified were further tested by dose response assays. […] These compounds were tested for inhibition of ska expression by measuring SK activity in supernatants of GAS exposed to the test compound or control vehicle alone (DMSO). SK(+)GAS were cultured with hit compounds at a dose range of 10 nM to 100 μM at 37° C. for 16-20 hours. Supernatants of SK(+)GAS cultures were measured for SK activity using chromogenic substrate 2403 (Diapharma group Inc., West Chester, Ohio), according to the manufacturer's instruction and simultaneously monitored for nonspecific effects on GAS growth by measuring OD600 nm.
The positive compounds identified in dose response assays are subjected to SK assay to identify compounds inhibiting SK expression in SK(+)GAS. Briefly, SK(+)GAS is grown at the presence of hit compounds at a dose range determined by dose response assays within which SK(−) GAS growth is inhibited less than 10% while SKKanGAS growth is inhibited more than 50% under 20 μg/ml kanamycin.

`C=CCn1c(SCC#N)nc2c(c1=O)C(C)(C)Cc1ccccc1-2` [1S-22207] was tested, and the “SK Expression (% control)” value (streptokinase (SK); compound conc. 0.1 μg/ml) was 103 % control and 108 % control and 97 % control and 95 % control, the “SK Expression (% control)” value (streptokinase (SK); compound conc. 0.3 μg/ml) was 103 % control and 104 % control and 95 % control and 108 % control and the “SK Expression (% control)” value (streptokinase (SK); compound conc. 1.0 μg/ml) was 102 % control and 108 % control and 99 % control and 77 % control. The “SK Expression (% control)” value (streptokinase (SK); compound conc. 3 μg/ml) was 62 % control and 46 % control and 83 % control and 47 % control, the “SK Expression (% control)” value (streptokinase (SK); compound conc. 5 μg/ml) was 64 % control and 49 % control and 80 % control and the “SK Expression (% control)” value (streptokinase (SK); compound conc. 10 μg/ml) was 39 % control and 38 % control and 29 % control and 33 % control and 34 % control. The “SK Expression (% control)” value (streptokinase (SK); compound conc. 20 μg/ml) was 31 % control and 27 % control, the “SK Expression (% control)” value (streptokinase (SK); compound conc. 40 μg/ml) was 22 % control and 25 % control and 40 % control and the activity at 0.1 µg/mL (SK(+)GAS) was 96%. For the same compound, the activity at 0.3 µg/mL (SK(+)GAS) was 98%, the activity at 2.5 µg/mL (SK(+)GAS; read-out: GAS Growth (% control), compound conc. 2.5 μg/ml) was 100% and the activity at 5 µg/mL (SK(+)GAS) was 98%. The activity at 10 µg/mL (SK(+)GAS) was 96%, the activity at 20 µg/mL (SK(+)GAS) was 99% and the activity at 40 µg/mL (SK(+)GAS; read-out: GAS Growth (% control), compound conc. 40 μg/ml) was 113%. The activity at 70 µg/mL (SK(+)GAS; read-out: GAS Growth (% control), compound conc. 70 μg/ml) was 126% and the “survival of Tg+ mice compared to DMSO control group” value (SK(+)GAS (UMAA2616)) was “significant improvement in survival”.

For `C=CCn1c(SCCCC)nc2c(c1=O)C1(CCCCC1)Cc1ccccc1-2` [compound 575096], the “SK Expression (% control)” value (streptokinase (SK); compound conc. 0.1 μg/ml) was 77 % control and 83 % control and 95 % control, the “SK Expression (% control)” value (streptokinase (SK); compound conc. 0.3 μg/ml) was 108 % control and 95 % control and 127 % control and the “SK Expression (% control)” value (streptokinase (SK); compound conc. 1.0 μg/ml) was 65 % control and 69 % control and 84 % control. For the same compound, the “SK Expression (% control)” value (streptokinase (SK); compound conc. 3 μg/ml) was 61 % control and 62 % control and 69 % control, the “SK Expression (% control)” value (streptokinase (SK); compound conc. 5 μg/ml) was 50 % control and the “SK Expression (% control)” value (streptokinase (SK); compound conc. 40 μg/ml) was 68 % control and 51 % control and 69 % control and 76 % control. The “SK Expression (% control)” value (streptokinase (SK); compound conc. 50 μg/ml) was 65 % control and 66 % control and 83 % control, the “SK Expression (% control)” value (streptokinase (SK); compound conc. 70 μg/ml) was 40 % control and 61 % control and the activity at 0.1 µg/mL (SK(+)GAS) was 97%. For the same compound, the activity at 0.3 µg/mL (SK(+)GAS) was 102%, the activity at 1 µg/mL (SK(+)GAS; read-out: GAS Growth (% control), compound conc. 1 μg/ml) was 102% and the activity at 3 µg/mL (SK(+)GAS; read-out: GAS Growth (% control), compound conc. 3 μg/ml) was 100%. The activity at 5 µg/mL (SK(+)GAS) was 101%, the activity at 10 µg/mL (SK(+)GAS) was 102% and the activity at 20 µg/mL (SK(+)GAS) was 84%. For the same compound, the “survival of Tg+ mice compared to DMSO control group” value (SK(+)GAS (UMAA2616)) was “significant improvement in survival”.
